Read-outs that look alike come from different tables or passages of the source. Some results are limits rather than exact numbers.

The test system of assay [1] is PC-9 cells (EGFR Ex19Del). Description: Potency Assay: pERK (SOS1 pERK IC50 Assay, AlphaLISA SureFire Ultra p-ERK1/2). As to conditions: Homo sapiens, read-out: SOS1 pERK IC50. The class given is cell-based. The protocol: The purpose of this assay is to measure the ability of test compounds to inhibit SOS1 function in cells. SOS1 activates RAS proteins by catalyzing the conversion of RAS GDP to RAS GTP in response to receptor tyrosine kinase activation. […] The procedure described below measures the level of cellular pERK in response to test compounds in PC-9 cells (EGFR Ex19Del).
PC-9 cells were grown and maintained using media and procedures recommended by the ATCC. On the day prior to compound addition, cells were plated in 384-well cell culture plates (40 μL/well) and grown overnight in a 37° C., 5% CO2 incubator. Test compounds were prepared in 10, 3-fold dilutions in DMSO, with a top concentration of 10 mM. On the day of the assay, 40 nL of test compound was added to each well of cell culture plate using an Echo550 liquid handler (LabCyte). Concentrations of test compound were tested in duplicate with highest test concentration being 10 μM. After compound addition, cells were incubated for 1 hour at 37° C., 5% CO2. Following incubation, culture medium was removed and cells were washed once with phosphate buffered saline.
Cellular pERK level was determined using the AlphaLISA SureFire Ultra p-ERK1/2 Assay Kit (PerkinElmer). Cells were lysed in 25 μL lysis buffer, with shaking at 600 RPM at room temperature for 15 minutes. Lysate (10 μL) was transferred to a 384-well Opti-plate (PerkinElmer) and 5 μL acceptor mix was added. The plate was centrifuged at 1000 RPM for 1 minute, and incubated in the dark for 2 hours. Following this incubation, 5 μL of donor mix was added, the plate was sealed and centrifuged at 1000 RPM for 1 minute, and the mixture was incubated for 2 hours at room temperature. Signal was read on an Envision plate reader (PerkinElmer) using standard AlphaLISA settings. Analysis of raw data was carried out in Excel (Microsoft) and Prism (GraphPad). Signal was plotted vs. the decadal logarithm of compound concentration, and IC50 was determined by fitting a 4-parameter sigmoidal concentration response model.

For assay [2], the target named is T1, SOS1 catalytic domain (residues 564-1049) (Homo sapiens, UniProt Q07889).
T1 sequence (Q07889 564-1049): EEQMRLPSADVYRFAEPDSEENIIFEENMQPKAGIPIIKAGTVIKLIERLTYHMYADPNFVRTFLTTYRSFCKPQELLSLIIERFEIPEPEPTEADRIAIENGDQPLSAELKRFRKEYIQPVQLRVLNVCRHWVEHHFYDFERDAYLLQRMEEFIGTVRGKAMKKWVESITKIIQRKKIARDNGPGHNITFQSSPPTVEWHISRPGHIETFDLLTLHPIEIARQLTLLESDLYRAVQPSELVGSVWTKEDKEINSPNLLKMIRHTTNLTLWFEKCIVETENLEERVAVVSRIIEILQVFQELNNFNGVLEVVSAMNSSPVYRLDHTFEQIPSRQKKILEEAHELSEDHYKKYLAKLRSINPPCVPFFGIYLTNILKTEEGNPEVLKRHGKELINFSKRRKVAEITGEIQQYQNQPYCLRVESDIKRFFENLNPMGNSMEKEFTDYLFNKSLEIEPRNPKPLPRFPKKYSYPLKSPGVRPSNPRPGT
Description: Mode of Action Assay: inhibition of SOS1 nucleotide exchange activity (SOS1 TR-FRET IC50 Assay).

The mark [3] stands for this setting: PC-9 cells (EGFR Ex19Del), 1 hour incubation, AlphaLISA p-ERK1/2.

Turning to `C[C@@H](Nc1nc(Cl)nc2c1CN(C(=O)N1CCOCC1)C2)c1cncc(C(F)(F)F)c1` [Example 480, 2-chloro-6-(morpholine-4-carbonyl)-N-[(1R)-1-[5-(trifluoromethyl)pyridin-3-yl]ethyl]-5H,6H,7H-pyrrolo[3,4-d]pyrimidin-4-amine], the IC50 in assay [1] (setting [3]) and in assay [2] was above 1000 nM in each case.
As for `CC(Nc1nc(Cl)nc2c1CN(C(=O)N1CCOCC1)C2)c1cc(C(F)(F)F)ccn1` (stereo not drawn) [Example 472, 2-chloro-6-(morpholine-4-carbonyl)-N-{1-[4-(trifluoromethyl)pyridin-2-yl]ethyl}-5H,6H,7H-pyrrolo[3,4-d]pyrimidin-4-amine], the IC50 in assay [1] (setting [3]) and in assay [2] was above 1000 nM in each case.
Take `Cc1nc2c(c(N[C@H](C)c3cc(N)cc(C(F)(F)F)c3)n1)CN(S(=O)(=O)N1CCN(C)CC1)C2` [Example 38, (R)—N-(1-(3-amino-5-(trifluoromethyl)phenyl)ethyl)-2-methyl-6-((4-methylpiperazin-1-yl)sulfonyl)-6,7-dihydro-5H-pyrrolo[3,4-d]pyrimidin-4-amine]: the IC50 in assay [1] (setting [3]) and in assay [2] was below 1000 nM in each case.
Regarding `COC1(C(=O)N2CCc3nc(Cl)nc(N[C@H](C)c4cc(N)cc(C(F)(F)F)c4)c3C2)CCCOC1` (stereo partly drawn) [Example 224], the 50% inhibitory concentration (IC50) in assay [1] (setting [3]) and in assay [2] was above 1000 nM in each case.
On to `C[C@@H](Nc1nc(Cl)nc2c1CN(C(=O)N1CCOCC1)C2)c1cccc(C(F)(F)OC2CC2)c1` [Example 524, 2-chloro-N-[(1R)-1-[3-(cyclopropoxydifluoromethyl)phenyl]ethyl]-6-(morpholine-4-carbonyl)-5H,6H,7H-pyrrolo[3,4-d]pyrimidin-4-amine], for which the IC50 in assay [1] (setting [3]) is above 1000 nM; in assay [2], below 1000 nM.
For `C[C@@H](Nc1nc(Cl)nc2c1CN(C(=O)C1(O)CCOCC1)CC2)c1cc(N)cc(C(F)(F)F)c1` [Example 189] the same measures were above 1000 nM and above 1000 nM.
Take `C[C@@H](Nc1nc(Cl)nc2c1CCN(CC1CCOC1)CC2)c1cc(N)cc(C(F)(F)F)c1` (stereo partly drawn) [Example 113, N-[(1R)-1-[3-amino-5-(trifluoromethyl)phenyl]ethyl]-2-chloro-7-(oxolan-3-ylmethyl)-5H,6H,7H,8H,9H-pyrimido[4,5-d]aze-pin-4-amine]: the IC50 in assay [2] is above 1000 nM.
`C[C@@H](Nc1ncnc2c1CN(C1CCOCC1)C(=O)N2C)c1cc(N)cc(C(F)(F)F)c1` [Example 176, (R)-5-((1-(3-amino-5-(trifluoromethyl)phenyl)ethyl)amino)-1-methyl-3-(tetrahydro-2H-pyran-4-yl)-3,4-dihydropyrimido[4,5-d]pyrimidin-2(1H)-one]: the IC50 in assay [1] (setting [3]) and in assay [2] was below 1000 nM throughout.
Take `CNCc1nc2c(c(N[C@H](C)c3cc(N)cc(C(F)(F)F)c3)n1)CN(C(=O)N1CCOCC1)C2` [Example 503, N-[(1R)-1-[3-amino-5-(trifluoro-methyl)phenyl]ethyl]-2-[(methylamino)methyl]-6-(morpholine-4-carbonyl)-5H,6H,7H-pyrrolo[3,4-d]-pyrimidin-4-amine]: the IC50 in assay [1] (setting [3]) is above 1000 nM; in assay [2], below 1000 nM.
For `COC1(C(=O)N2CCc3nc(Cl)nc(N[C@H](C)c4cc(N)cc(C(F)(F)F)c4)c3C2)CC1` [Example 201], in that order: above 1000 nM and above 1000 nM.
Turning to `CC(Nc1nc(Cl)nc2c1CN(C(=O)N1CCOCC1)C2)c1cccc(S(N)(=O)=O)c1` (stereo not drawn) [Example 535, 3-[1-[[2-chloro-6-(morpholine-4-carbonyl)-5,7-dihydropyrrolo[3,4-d]pyrimidin-4-yl]amino]ethyl]benzenesulfonamide], the IC50 in assay [1] (PC-9, 1 h) was above 1000 nM; in assay [2], above 1000 nM.
Take `CC(Nc1nc(Cl)nc2c1CN(C(=O)N1CCOCC1)C2)c1cc(N)c(F)c(C(F)(F)F)c1` (stereo not drawn) [Example 533, [4-[1-[3-amino-4-fluoro-5-(trifluoromethyl)phenyl]ethylamino]-2-chloro-5,7-dihydropyrrolo[3,4-d]pyrimidin-6-yl]-morpholino-methanone]: the IC50 is below 1000 nM in assay [1] (setting [3]) and above 1000 nM in assay [2].
For `C[C@@H](Nc1nc(Cl)nc2c1CN(C(=O)C1(C#N)CCC1)CC2)c1cc(N)cc(C(F)(F)F)c1` [Example 202] the same measures were above 1000 nM and above 1000 nM.
For `COC1CCC(C(=O)N2CCc3nc(Cl)nc(N[C@H](C)c4cc(N)cc(C(F)(F)F)c4)c3C2)C1` (stereo partly drawn) [Example 199] the same measures were above 1000 nM and above 1000 nM.
`C[C@@H](Nc1nc(Cl)nc2c1CN(C(=O)C1(N3CCOCC3)CCC1)CC2)c1cc(N)cc(C(F)(F)F)c1` [Example 207] yielded an IC50 in assay [2] above 1000 nM.
For `C[C@@H](Nc1nc(Cl)nc2c1CN(C(=O)N1CCNC3CC31)C2)c1cccc(C(F)(F)F)c1` (stereo partly drawn) [Example 379], the half-inhibitory concentration (IC50) in assay [1] (setting [3]) and in assay [2] was below 1000 nM in each case.
For the compound `C[C@@H](Nc1nc(CNC2COC2)nc2c1CN(C(=O)N1CCOCC1)C2)c1cccc(C(F)F)c1F` [Example 509, N-[(1R)-1-[3-(difluoromethyl)-2-fluorophenyl]ethyl]-6-(morpholine-4-carbonyl)-2-{[(oxetan-3-yl)amino]methyl}-5H,6H,7H-pyrrolo-[3,4-d]pyrimidin-4-amine], the IC50 in assay [1] (setting [3]) was above 1000 nM; in assay [2] it was below 1000 nM.
`Cc1cc([C@@H](C)Nc2nc(Cl)nc3c2CN(C(=O)N2CCOCC2)C3)cc(C(F)(F)F)c1` [Example 515, 2-chloro-N-[(1R)-1-[3-methyl-5-(trifluoromethyl)phenyl]ethyl]-6-(morpholine-4-carbonyl)-5H,6H,7H-pyrrolo[3,4-d]pyrimidin-4-amine] displayed an IC50 in assay [2] above 1000 nM.
Turning to `C[C@@H](Nc1nc(Cl)nc2c1CN(C(=O)C1(c3ncccn3)CC1)CC2)c1cc(N)cc(C(F)(F)F)c1` [Example 191], in assay [2], the IC50 is above 1000 nM.
Same read-out and setting: as for `C[C@@H](Nc1nc(Cl)nc2c1CC1(CC2)OCCO1)c1cc(N)cc(C(F)(F)F)c1` [Example 514, N-[(1R)-1-[3-amino-5-(trifluoromethyl)phenyl]ethyl]-2′-chloro-7′,8′-dihydro-5′H-spiro[1,3-dioxolane-2,6′-quinazoline]-4′-amine], the figure is above 1000 nM.
On to `C[C@@H](Nc1nc(Cl)nc2c1CN(S(=O)(=O)c1ccccn1)CC2)c1cc(N)cc(C(F)(F)F)c1` [Example 459], for which the IC50 in assay [1] (setting [3]) is below 1000 nM.
`C[C@@H](Nc1nc(Cl)nc2c1CN(C(=O)N1CCOc3ccncc31)C2)c1cccc(C(F)(F)F)c1` [Example 373] showed an IC50 in assay [2] below 1000 nM.
Compound `COC1(C(=O)N2CCc3nc(Cl)nc(N[C@H](C)c4cc(N)cc(C(F)(F)F)c4)c3C2)CCOC1` (stereo partly drawn) [Example 198] returned a half-maximal inhibitory concentration (IC50) in assay [2] above 1000 nM.
Turning to `COc1ccc(C2(C(=O)N3CCc4nc(Cl)nc(N[C@H](C)c5cc(N)cc(C(F)(F)F)c5)c4C3)COC2)cc1` [Example 192], the 50% inhibitory concentration (IC50) in assay [2] is above 1000 nM.
`C[C@@H](Nc1nc(Cl)nc2c1CN(C(=O)C1CN(C)CCO1)C2)c1cccc(C(F)(F)F)c1` (stereo partly drawn) [Example 277]: the IC50 in assay [1] (setting [3]) was above 1000 nM.
`C[C@@H](Nc1nc(Cl)nc2c1CN(C(=O)N1CCOCC1)C2)c1cc(F)cc(C(F)(F)F)c1` [Example 511, 2-chloro-N-[(1R)-1-[3-fluoro-5-(trifluoromethyl)phenyl]ethyl]-6-(morpholine-4-carbonyl)-5H,6H,7H-pyrrolo[3,4-d]pyrimidin-4-amine] showed an IC50 in assay [2] above 1000 nM.
For `C[C@@H](Nc1nc(Cl)nc2c1CN(C(=O)c1ncccc1C(F)(F)F)CC2)c1cc(N)cc(C(F)(F)F)c1` [Example 253], the IC50 in assay [2] was above 1000 nM.
For `COc1ccc(C(=O)N2CCc3nc(Cl)nc(N[C@H](C)c4cc(N)cc(C(F)(F)F)c4)c3C2)nc1OC` [Example 244], in assay [1] (setting [3]), the IC50 is above 1000 nM.
In the case of `C[C@@H](Nc1nc(Cl)nc2c1CN(C(=O)[C@]13CCC[C@H]1C3(F)F)CC2)c1cc(N)cc(C(F)(F)F)c1` [Example 217], the half-maximal inhibitory concentration (IC50) in assay [2] was above 1000 nM.
Regarding `C[C@@H](Nc1nc(Cl)nc2c1CN(C(=O)c1cccc(C(F)(F)F)n1)CC2)c1cc(N)cc(C(F)(F)F)c1` [Example 251], the IC50 in assay [1] (setting [3]) is above 1000 nM.
